Broadly, the EC50 is the midpoint of the concentration-response curve. The IC50 is the point on the concentration scale where inhibition reaches its midpoint.

This passage reports EC50 and IC50 results from patent publication US11926628B2 (Gilead Sciences, Inc., priority 2021, dated 2024).

For test [1], the system named is Jurkat NFκB-luciferase cells. Nature of the test: Jurkat NFκB-Luciferase Assay. The format is cell-based. The following applies: Homo sapiens; Jurkat NFκB-luciferase cells activated with anti-CD3 antibody (OKT3), 2.5 hrs at 37° C.; geometric mean; read-out: DGK NFKb Luciferase EC50. How it is done: The activity of compounds was tested in a cell based NFκB reporter assay. Jurkat cells that are stably expressing a luciferase reporter construct under the transcriptional control of a NFκB reporter element were activated with an anti-CD3 antibody and luciferase levels were measured with a bioluminescence readout. An increase in the levels of bioluminescence was indicative of enhanced T-cell activation following DGKα inhibition by the compound.
Flat-bottom polystyrene plates (384-well, tissue culture treated) were coated overnight at 4° C. with 20 ul/well of a solution of phosphate-buffered saline supplemented with 5 ug/ml anti-CD3 antibody (clone OKT3, Biolegend). The day after, the excess antibody was washed out five times with 100 ul/well of assay medium (RPMI supplemented with 10% fetal bovine serum) using a Biotek EL406 instrument and leaving 20 ul of residual volume in each well. Jurkat NFκB-luciferase cells (Promega #) were harvested and diluted to 1 million cells/ml in assay medium. Sixty nanoliters of test compound dissolved in DMSO at various concentrations were dispensed into 384-well v-bottom polypropylene plates (Greiner) using a Labcyte Echo instrument. Thirty microliters of medium containing the Jurkat NFκB-luciferase cells were then dispensed using a Biotek MicroFlo instrument in each well of the compound-containing plate. The medium/cell/compound mixture was mixed with a Bravo instrument and 20 ul/well of the mixture was transferred to the anti-CD3-coated plate. The assay mixture was then incubated for 2.5 hrs at 37° C. followed by equilibration at 25° C. for 30 min. Forty microliters of One-Glo Ex (Promega) was then added to the assay mixture and luciferase activity was read on a Envision plate reader 7 minutes later.
Bioluminescence data were normalized based on maximum enhancement (1 micromolar of compound) and on basal activation (DMSO) controls. Least squares curve fittings were performed using a four-parameter variable slope nonlinear regression model. EC50 is defined as the concentration of compound required to produce 50% of maximum NFκB luciferase signal. EC50 values from multiple experiments were averaged by geometric mean and the standard deviation was calculated.

Another test has as its target human DGKα (Homo sapiens (Human), UniProt P23743). Put plainly: DGKα Biochemical Activity Assay (ADP-Glo). The settings on record: recombinant DGKα 1 nM, 100 μM ATP, 18:1 DAG/POPS/octylglucoside micelles, 1 hour at 25° C.; geometric mean; read-out: HTBS DGKa 1X ATP KM IC50. The text has this:
Alternatively, the enzymatic activity of human DGKα was monitored in a biochemical assay in the presence or absence of compounds and using micelles containing 18:1 Diacylglycerol (DAG), 16:0-18:1 PS (POPS) and Octylglucoside as substrate. DGKα activity led to conversion of DAG and ATP to Phosphatidic Acid (PA) and ADP. Levels of ADP were monitored by bioluminescence using the ADP-Glo Kinase Assay (Promega) and were indicative of DGKα activity.
Ten nanoliters of test compound dissolved in DMSO at various concentrations were dispensed into a 384-well low volume nonbinding service white plates (Corning #3824) using a Labcyte Echo instrument. Recombinant DGKα (Carna Biosciences) in assay buffer (5 μL in 50 mM MOPS [3-(N-morpholino) propanesulfonic acid], pH 7.2; 0.0025% Triton X-100; 1 mM dithiothreitol; 5 mM MgCl2, 200 μM ATP) was added to the compound-containing plate and was incubated for 15 minutes at 25° C. A substrate solution (5 μL in 1.7 mM 1,2-dioleoyl-sn-glycerol [18:1 DAG], 13.5 mM 1-palmitoyl-2-oleoyl-sn-glycero-3-phospho-L-serine [16:0-18:1 PS](POPS), 2 μM CaCl2, 100 mM Octylglucoside (OG), 1 mM DTT) (obtained from Carna Biosciences) diluted in DGK ALPHA assay buffer was then added to start the reaction. Final concentrations were 1 nM DGKα, 100 μM ATP, 1 μM calcium chloride, 0.85 mM 1,2-dioleoyl-sn-glycerol (18:1 DAG), 6.75 mM 1-palmitoyl-2-oleoyl-sn-glycero-3-phospho-L-serine (16:0-18:1 PS) (POPS), 1 μM CaCl2), 50 mM Octylglucoside (OG) and 5 mM MgCl2. The reaction mixture was incubated at 25° C. for 1 hour. ADP-Glo Reagent (10 μL, 10 mM Mg added) provided by the kit was added to each well and incubated at 25° C. for 40 minutes. Then, 20 μL of Kinase Detection Reagent was added and incubated at 25° C. for 40 minutes. Luciferase activity of each well was measured via luminescence on an Envision plate reader (PerkinElmer).
Data were normalized based on maximum inhibition (50 μM of kinase inhibitor CU3) and no inhibition (DMSO) controls. Least squares curve fittings were performed using a four-parameter variable slope nonlinear regression model. IC50 was defined as the concentration of compound required to inhibit 50% of maximum activity. IC50 values from multiple experiments were averaged by geometric mean and the standard deviation was calculated.
(In general: ADP-Glo turns the ADP formed in a reaction into a luminescent signal.)

Chain of human DGKα (P23743 whole entry): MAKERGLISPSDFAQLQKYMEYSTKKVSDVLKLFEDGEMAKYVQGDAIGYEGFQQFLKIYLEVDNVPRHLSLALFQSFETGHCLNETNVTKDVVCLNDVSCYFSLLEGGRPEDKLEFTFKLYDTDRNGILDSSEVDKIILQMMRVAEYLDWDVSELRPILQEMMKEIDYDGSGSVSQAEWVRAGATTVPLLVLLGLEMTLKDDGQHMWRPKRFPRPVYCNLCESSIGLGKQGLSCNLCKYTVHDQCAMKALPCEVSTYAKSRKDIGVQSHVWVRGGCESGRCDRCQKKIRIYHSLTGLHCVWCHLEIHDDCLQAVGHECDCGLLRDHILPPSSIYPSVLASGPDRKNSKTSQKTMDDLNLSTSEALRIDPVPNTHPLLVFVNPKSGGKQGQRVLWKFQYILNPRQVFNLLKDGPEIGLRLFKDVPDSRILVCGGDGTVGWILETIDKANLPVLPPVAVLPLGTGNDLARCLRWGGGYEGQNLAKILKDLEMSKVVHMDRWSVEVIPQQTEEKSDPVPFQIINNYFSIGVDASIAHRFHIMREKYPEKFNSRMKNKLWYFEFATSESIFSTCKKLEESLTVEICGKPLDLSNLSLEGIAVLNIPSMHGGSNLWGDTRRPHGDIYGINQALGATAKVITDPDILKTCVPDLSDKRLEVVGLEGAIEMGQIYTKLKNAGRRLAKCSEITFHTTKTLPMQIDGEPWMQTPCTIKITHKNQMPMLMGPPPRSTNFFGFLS

`CN(c1cccc(C#CC(C)(C)O)c1)c1nc2nccn2c2cc(Cl)ccc12` [Example 1, 4-(3-((8-chloroimidazo[1,2-a]quinazolin-5-yl)(methyl)amino)phenyl)-2-methylbut-3-yn-2-ol]: the 50% effective concentration (EC50) in test [1] was found to be 14 nM. In addition, the IC50 at human DGKα was determined as 165 nM.

Regarding `CN(c1cc(F)cc(C#CC2(C(F)(F)F)CC2)c1)c1nc2cncn2c2cc(Cl)ccc12` [Example 2, 8-chloro-N-[3-fluoro-5-[2-[1-(trifluoromethyl)cyclopropyl]ethynyl]phenyl]-N-methyl-imidazo[1,5-a]quinazolin-5-amine], the EC50 in test [1] is 5.11 nM. Moreover, the IC50 on human DGKα worked out at 2310 nM. On to `CN(c1cc(F)cc(C#CC(C)(C)O)c1)c1nc2cncn2c2cc(Cl)ccc12` [Example 3, 4-[3-[(8-chloroimidazo[1,5-a]quinazolin-5-yl)-methyl-amino]-5-fluoro-phenyl]-2-methyl-but-3-yn-2-ol], for which, in test [1], the EC50 was 14.6 nM. The IC50 at human DGKα was determined as 839 nM. `CN(c1cc(F)cc(-c2cnc(C3CC3)cn2)c1)c1nc2nnnn2c2cc(Cl)ccc12` [Example 4, 8-chloro-N-(3-(5-cyclopropylpyrazin-2-yl)-5-fluorophenyl)-N-methyltetrazolo[1,5-a]quinazolin-5-amine]: the concentration for a half-maximal effect (EC50) in test [1] is 0.669 nM. Moreover, the IC50 at human DGKα came out at 27.6 nM. For the molecule `CN(c1cccc(-c2ccc(N3CCCS3(=O)=O)cc2)c1)c1nc2nnnn2c2cc(Cl)ccc12` [Example 5, 2-(3′-((8-chlorotetrazolo[1,5-a]quinazolin-5-yl)(methyl)amino)-[1,1′-biphenyl]-4-yl)isothiazolidine 1,1-dioxide], the EC50 in test [1] was 4.2 nM. Further, at human DGKα, the IC50 was 28.4 nM.

Regarding `CN(c1cc(F)cc(-c2cnc(C3CC3)cn2)c1)c1nc2nnnn2c2ccc(F)cc12` [Example 6, N-(3-(5-cyclopropylpyrazin-2-yl)-5-fluorophenyl)-7-fluoro-N-methyltetrazolo[1,5-a]quinazolin-5-amine], in test [1], the EC50 was determined as 1.31 nM. The IC50 at human DGKα stood at 15.7 nM. On the same counts, the results for `CCN(c1cc(F)cc(-c2ccc(N3CC4(CC4)CS3(=O)=O)nc2)c1)c1nc2nnnn2c2cc(Cl)ccc12` [Example 7] are 7.41 nM and 117 nM.

On to `CN(c1cc(F)cc(-c2ccc(N3CC4(CC4)CS3(=O)=O)nc2)c1)c1nc2nnnn2c2ccc(F)cc12` [Example 8], for which, in test [1], the EC50 worked out at 4.66 nM. Also, the IC50 on human DGKα amounted to 31.1 nM. With `CN(c1cccc(-c2cnc(C3CC3)cn2)c1)c1nc2nnnn2c2cc(Cl)ccc12` [Example 9, 8-chloro-N-(3-(5-cyclopropylpyrazin-2-yl)phenyl)-N-methyltetrazolo[1,5-a]quinazolin-5-amine], the EC50 in test [1] was 1.75 nM. For the same molecule, the IC50 at human DGKα stood at 44.3 nM. On the same counts, the results for `CN(c1cccc(C#CC(C)(C)O)c1)c1nc2nnnn2c2cc(Cl)ccc12` [Example 10, 4-(3-((8-chlorotetrazolo[1,5-a]quinazolin-5-yl)(methyl)amino)phenyl)-2-methylbut-3-yn-2-ol] are 8.66 nM and 93.1 nM.

Regarding `CN(c1cccc(Br)c1)c1nc2nnnn2c2cc(Cl)ccc12` [Example 11, N-(3-bromophenyl)-8-chloro-N-methyltetrazolo[1,5-a]quinazolin-5-amine], the EC50 in test [1] is 36.4 nM. In addition, at human DGKα, the IC50 came out at 430 nM.

With `CN(c1cc(F)cc(C#CC(C)(C)C(F)F)c1)c1nc2nnnn2c2ccc(F)cc12` [Example 12], the EC50 in test [1] came to 2.52 nM. In addition, the IC50 on human DGKα is 107 nM. In the case of `CN(c1cc(F)cc(C#CC(C)(C)O)c1)c1nc2nnnn2c2ccc(F)cc12` [Example 13, 4-(3-fluoro-5-((7-fluorotetrazolo[1,5-a]quinazolin-5-yl)(methyl)amino)phenyl)-2-methylbut-3-yn-2-ol], the EC50 in test [1] was determined as 7.54 nM. For the same molecule, the IC50 on human DGKα turned out to be 12.8 nM. Consider `CN(c1cc(F)cc(C#CC2(C(F)F)CC2)c1)c1nc2nnnn2c2ccc(F)cc12` [Example 14], for which the EC50 in test [1] amounted to 1.54 nM. In addition, on human DGKα, the IC50 came out at 65.7 nM.

For `CN(c1cc(F)cc(C#CC(C)(C)C)c1)c1nc2nnnn2c2ccc(F)cc12` [Example 15], the EC50 in test [1] was 1.79 nM. On human DGKα, the 50% inhibitory concentration (IC50) came to 42.9 nM. In the same order, the values of `CN(c1cc(F)cc(C#CC2(C(F)(F)F)CC2)c1)c1nc2nnnn2c2ccc(F)cc12` [Example 16] are 3.24 nM and 22.4 nM. Regarding `Cc1nnc2nc(N(CC(F)F)c3cc(F)cc(C#CC(C)(C)O)c3)c3ncccc3n12` [Example 17, 4-(3-((2,2-difluoroethyl)(1-methylpyrido[2,3-e][1,2,4]triazolo[4,3-a]pyrimidin-5-yl)amino)-5-fluorophenyl)-2-methylbut-3-yn-2-ol], the EC50 in test [1] is 44.3 nM. The IC50 on human DGKα was determined as 77.7 nM. On to `Cc1nnc2nc(N3CCCc4c(C#CC5(C(F)(F)F)CC5)cccc43)c3c(F)cncc3n12` [Example 41, 6-fluoro-1-methyl-5-(5-((1-(trifluoromethyl)cyclopropyl)ethynyl)-3,4-dihydroquinolin-1(2H)-yl)pyrido[4,3-e][1,2,4]triazolo[4,3-a]pyrimidine], for which the EC50 in test [1] was 2.4 nM. In the case of `CN(c1cccc(C#CC(C)(C)C)c1)c1nc2nncn2c2cnccc12` [Example 60], in test [1], the EC50 was found to be 6.75 nM. On the same count and under the same terms, the value for `Cc1nnc2nc(N3CCCCc4c(C#CC(C)(C)C#N)cccc43)c3c(F)cncc3n12` [Example 64, 4-(1-(6-fluoro-1-methylpyrido[4,3-e][1,2,4]triazolo[4,3-a]pyrimidin-5-yl)-2,3,4,5-tetrahydro-1H-benzo[b]azepin-6-yl)-2,2-dimethylbut-3-ynenitrile] was 5.98 nM; that for `CN(C)c1ccc2c(N(C)c3cccc(C#CC(C)(C)C)c3)nc3nncn3c2n1` [Example 110, N^5-(3-(3,3-dimethylbut-1-yn-1-yl)phenyl)-N^2,N^2,N^5-trimethylpyrido[3,2-e][1,2,4]triazolo[4,3-a]pyrimidine-2,5-diamine] was 9.9 nM; that for `COc1ccc(-c2cccc(N(C)c3nc4nncn4c4nc(N(C)C)ccc34)c2)cn1` [Example 111, N^5-(3-(6-methoxypyridin-3-yl)phenyl)-N^2,N^2,N^5-trimethylpyrido[3,2-e][1,2,4]triazolo[4,3-a]pyrimidine-2,5-diamine] was 20.1 nM. The same measure, in the same setting: for `CN(C)c1ccc2c(N(C)c3cccc(-c4ccc(C5CC5)cc4)c3)nc3nncn3c2n1` [Example 112, N^5-(4′-cyclopropyl-[1,1′-biphenyl]-3-yl)-N^2,N^2,N^5-trimethylpyrido[3,2-e][1,2,4]triazolo[4,3-a]pyrimidine-2,5-diamine] the value was 0.982 nM; for `CCOc1ccc2c(N(C)c3cccc(-c4ccc(C5CC5)cc4)c3)nc3nncn3c2n1` [Example 113, N-(4′-cyclopropyl-[1,1′-biphenyl]-3-yl)-2-ethoxy-N-methylpyrido[3,2-e][1,2,4]triazolo[4,3-a]pyrimidin-5-amine], 67.2 nM.
